# Results: US20170320870A1 (Medical Research Council Technology, priority 2009, published 2017)
# Biological target: T1, LRRK2 wild type (recombinant human, catalytic domain amino acids 970-2527, GST-tagged) (Homo sapiens, UniProt Q5S007)
# T1 construct: The wild type used was recombinant human, catalytic domain (amino acids 970-2527) GST-tagged, expressed in insect cells; GST; purchased Invitrogen Corporation PV4873; host or cells: insect cells
# Test: LRRK2 wild type protein kinase assay ([γ-33P] ATP, peptide substrate […]), IC50
# Format: biochemical
# Details: LRRK2 (variant not given); read-out: Potency score, LRRK2 IC50
# Text: All LRRK2 protein kinases were of human origin and were sourced from Invitrogen Corporation (Carlsbad, Calif. 92008 USA) unless otherwise indicated. The active mutant used was recombinant human, catalytic domain (amino acids 970-2527) containing a G2019S mutation, GST-tagged, expressed in insect cells (Invitrogen Cat#PV4881). The wild type used was recombinant human, catalytic domain (amino acids 970-2527) GST-tagged, expressed in insect cells (Invitrogen Cat#PV4873). The kinase dead mutant used was recombinant human, catalytic domain (amino acids 970-2527) containing a D1994A mutation, GST-tagged, expressed in insect cells (Invitrogen Cat#PM4041AE). No special measures were taken to activate any of the kinases.
# All assays were carried out at room temperature (˜21° C.) and were linear with respect to time and enzyme concentration under the conditions used. Assays were performed for 180 min in a 96 well format. LRRK2 was present at a concentration of approximately 5 nM. The enzyme was diluted and assayed in 50 mM Tris-HCl pH7.5, 0.1 mM EGTA, 1 mM DTT and 10 mM MgCl2. The concentration of magnesium chloride in the assay was 10 mM. The [γ-33P] […] The peptide substrate in the assay was […] at 100 μM.
# The assays were initiated with Mg/ATP and stopped by the addition of 25 μl/well 50% orthophosphoric acid. Reactions were harvested onto Whatman P81 Unifilter Plates (Fisher Scientific. Loughborough, LE115RG, UK. Cat# FDU-105-020U) using a Tomtec harvester. (Tomtec Hamden, Conn. 06514. USA) Plates were counted using a Perkin Elmer Top Count NX7. (Perkin Elmer, Shelton Conn. 06484-4794 USA)
# IC50 values of inhibitors were determined after carrying out assays at 10 different concentrations of each compound in duplicate.
# T1 sequence (Q5S007 970-2527): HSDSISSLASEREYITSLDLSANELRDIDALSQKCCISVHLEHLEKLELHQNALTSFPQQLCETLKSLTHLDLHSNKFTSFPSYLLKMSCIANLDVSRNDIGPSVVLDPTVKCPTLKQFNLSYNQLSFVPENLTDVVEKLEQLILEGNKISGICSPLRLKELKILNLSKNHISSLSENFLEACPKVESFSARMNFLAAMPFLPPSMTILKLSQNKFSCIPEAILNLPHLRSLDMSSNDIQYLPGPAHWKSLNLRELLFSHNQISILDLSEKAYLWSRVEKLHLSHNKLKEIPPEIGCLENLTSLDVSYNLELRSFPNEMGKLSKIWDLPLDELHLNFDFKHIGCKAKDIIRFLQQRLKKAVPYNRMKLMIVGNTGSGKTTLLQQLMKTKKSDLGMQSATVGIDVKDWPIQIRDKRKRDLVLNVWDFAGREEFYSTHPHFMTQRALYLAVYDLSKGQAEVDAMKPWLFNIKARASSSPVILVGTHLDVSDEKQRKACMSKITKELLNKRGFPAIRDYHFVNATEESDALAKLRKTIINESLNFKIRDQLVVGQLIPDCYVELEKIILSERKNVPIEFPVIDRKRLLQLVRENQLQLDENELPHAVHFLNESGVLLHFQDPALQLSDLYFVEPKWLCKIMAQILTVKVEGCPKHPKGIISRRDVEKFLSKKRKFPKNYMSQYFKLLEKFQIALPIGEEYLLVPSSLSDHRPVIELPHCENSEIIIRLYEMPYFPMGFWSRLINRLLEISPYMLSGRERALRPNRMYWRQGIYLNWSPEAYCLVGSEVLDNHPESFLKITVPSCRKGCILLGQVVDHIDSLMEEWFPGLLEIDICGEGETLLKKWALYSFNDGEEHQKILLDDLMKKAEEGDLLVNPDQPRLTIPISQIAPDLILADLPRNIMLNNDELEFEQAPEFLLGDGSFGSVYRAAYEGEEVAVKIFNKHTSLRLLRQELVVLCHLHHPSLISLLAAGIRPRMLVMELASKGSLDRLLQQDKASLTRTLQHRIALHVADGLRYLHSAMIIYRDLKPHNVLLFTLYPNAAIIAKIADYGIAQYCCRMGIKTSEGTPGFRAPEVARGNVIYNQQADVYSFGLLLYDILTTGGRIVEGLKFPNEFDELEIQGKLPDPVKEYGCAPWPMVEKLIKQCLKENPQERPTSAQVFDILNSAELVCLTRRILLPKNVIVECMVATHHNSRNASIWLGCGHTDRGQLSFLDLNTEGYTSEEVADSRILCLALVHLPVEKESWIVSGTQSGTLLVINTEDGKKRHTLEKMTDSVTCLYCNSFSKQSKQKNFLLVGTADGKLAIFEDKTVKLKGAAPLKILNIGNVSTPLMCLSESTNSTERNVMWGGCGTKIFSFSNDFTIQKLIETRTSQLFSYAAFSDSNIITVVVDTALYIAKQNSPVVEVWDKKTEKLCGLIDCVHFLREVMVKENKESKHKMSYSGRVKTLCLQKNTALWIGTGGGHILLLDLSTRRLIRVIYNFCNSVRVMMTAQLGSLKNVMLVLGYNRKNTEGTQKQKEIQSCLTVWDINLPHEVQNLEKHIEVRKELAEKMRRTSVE
row,Compound,IC50 [nM]
1,"Cc1n[nH]c2ccnc(Nc3cccc(N(C)C)c3)c12 [Example 92, N,N-Dimethyl-N′-(3-methyl-1H-pyrazolo[4,3-c]pyridin-4-yl)-benzene-1,3-diamine]",1000 to 10000
2,"CN(Cc1ccccc1)C(=O)CCc1n[nH]c2ccnc(NC3CCCCC3)c12 [Example 183, N-Benzyl-3-(4-cyclohexylamino-1H-pyrazolo[4,3-c]pyridin-3-yl)-N-methyl-propionamide]",100 to 1000
3,CO[C@@H](C)COc1nccc2[nH]nc(C)c12 [Example 287],1000 to 10000
4,"OCCCc1n[nH]c2ccnc(NC3CCCCC3)c12 [Example 231, 3-(4-Cyclohexylamino-1H-pyrazolo[4,3-c]pyridin-3-yl)-propan-1-ol]",1000 to 10000
5,"O=C(CCc1n[nH]c2ccnc(NC3CCCCC3)c12)N1CCCCC1c1ccccc1 (centres unmarked) [Example 201, 3-(4-Cyclohexylamino-1H-pyrazolo[4,3-c]pyridin-3-yl)-1-(2-phenyl-piperidin-1-yl)-propan-1-one]",100 to 1000
6,"c1ccc(CCc2n[nH]c3ccnc(NC4CCCCC4)c23)nc1 [Example 214, Cyclohexyl-[3-(2-pyridin-2-yl-ethyl)-1H-pyrazolo[4,3-c]pyridin-4-yl]-amine]",< 100
7,"Clc1ccccc1-c1n[nH]c2ccnc(NC3CCCCC3)c12 [Example 143, [3-(2-Chloro-phenyl)-1H-pyrazolo[4,3-c]pyridin-4-yl]-cyclohexyl-amine]",100 to 1000
8,"COc1nccc2[nH]nc(/C=C/C(=O)N3CCC[C@@H](C)C3)c12 [Example 259, (E)-3-(4-Methoxy-1H-pyrazolo[4,3-c]pyridin-3-yl)-1-((R)-3-methyl-piperidin-1-yl)-propenone]",< 100
9,"Cc1n[nH]c2ccnc(Nc3ccc(C(F)(F)F)cc3)c12 [Example 346, (3-Methyl-1H-pyrazolo[4,3-c]pyridin-4-yl)-(4-trifluoromethyl-phenyl)-amine]",100 to 1000
10,"Cc1n[nH]c2ccnc(N[C@H](C)C3CC3)c12 [Example 43, ((R)-1-Cyclopropyl-ethyl)-(3-methyl-1H-pyrazolo[4,3-c]pyridin-4-yl)-amine]",1000 to 10000
11,"1-(3-Benzyl-piperidin-1-yl)- 3-(4-cyclohexylamino-1H- pyrazolo[4,3-c]pyridin-3-yl)- propan-1-one [Example 200]",100 to 1000
12,"Cc1n[nH]c2ccnc(OC3CCC3)c12 [Example 281, 4-Cyclobutoxy-3-methyl-1H-pyrazolo[4,3-c]pyridine]",100 to 1000
13,Fc1cccc(-c2n[nH]c3ccnc(NC4CCCCC4)c23)c1F [Example 159],1000 to 10000
14,"Cc1ccc(Nc2nccc3[nH]nc(C)c23)cc1 [Example 318, (4-Methyl-phenyl)-(3-methyl-1H-pyrazolo[4,3-c]pyridin-4-yl)-amine]",< 100
15,"O=C(Nc1ccc2nccnc2c1)c1ccc(CCc2n[nH]c3ccnc(NC4CCCCC4)c23)cc1 [Example 254, 4-[2-(4-Cyclohexylamino-1H-pyrazolo[4,3-c]pyridin-3-yl)-ethyl]-N-quinoxalin-6-yl-benzamide]",< 100
16,"CC1CN(C(=O)CCc2n[nH]c3ccnc(NC4CCCCC4)c23)CCN1C (centres unmarked) [Example 244, 3-(4-Cyclohexylamino-1H-pyrazolo [4,3-c]pyridin-3-yl)-1-(3,4-dimethyl-piperazin-1-yl)-propan-1-one]",100 to 1000
17,"O=C(CCc1n[nH]c2ccnc(NC3CCCCC3)c12)Nc1cccnc1 [Example 188, 3-(4-Cyclohexylamino-1H-pyrazolo[4,3-c]pyridin-3-yl)-N-pyridin-3-yl-propionamide]",1000 to 10000
18,c1cc(-c2n[nH]c3ccnc(NC4CCCCC4)c23)cc(-n2cccn2)c1 [Example 155],100 to 1000
19,"Cc1n[nH]c2ccnc(Nc3ccc(F)cc3)c12 [Example 311, (4-Fluoro-phenyl)-(3-methyl-1H-pyrazolo[4,3-c]pyridin-4-yl)-amine]",100 to 1000
20,"Cc1n[nH]c2ccnc(N3CCc4ccccc4C3)c12 [Example 12, 2-(3-Methyl-1H-pyrazolo[4,3-c]pyridin-4-yl)-1,2,3,4-tetrahydro-isoquinoline]",1000 to 10000
